Target: T1, full-length SARM1 (FL-SARM1) (Homo sapiens, UniProt Q6SZW1)
T1 sequence (Q6SZW1 28-724): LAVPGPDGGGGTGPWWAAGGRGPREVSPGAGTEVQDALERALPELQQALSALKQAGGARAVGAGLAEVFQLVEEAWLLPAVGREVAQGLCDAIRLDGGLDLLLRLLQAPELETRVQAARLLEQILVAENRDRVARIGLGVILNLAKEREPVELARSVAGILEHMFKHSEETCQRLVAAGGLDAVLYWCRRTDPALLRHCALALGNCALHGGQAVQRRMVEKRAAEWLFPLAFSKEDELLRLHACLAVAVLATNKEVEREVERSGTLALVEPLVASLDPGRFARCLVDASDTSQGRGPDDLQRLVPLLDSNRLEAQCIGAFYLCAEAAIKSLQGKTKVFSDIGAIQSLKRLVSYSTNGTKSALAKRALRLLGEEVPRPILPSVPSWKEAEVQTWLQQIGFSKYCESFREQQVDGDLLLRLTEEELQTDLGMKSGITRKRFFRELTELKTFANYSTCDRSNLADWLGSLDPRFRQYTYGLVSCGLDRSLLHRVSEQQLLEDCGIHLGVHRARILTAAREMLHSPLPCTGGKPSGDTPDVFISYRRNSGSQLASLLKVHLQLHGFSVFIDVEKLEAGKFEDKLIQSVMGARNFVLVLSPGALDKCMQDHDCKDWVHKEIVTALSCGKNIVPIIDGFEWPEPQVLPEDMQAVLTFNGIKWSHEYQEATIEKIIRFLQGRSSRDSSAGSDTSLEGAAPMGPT
Test: FL-SARM1 cellular lysate assay (NAD/NADH-Glo readout of remaining NAD+)
Conditions: SARM1 cellular lysate from transfected HEK293T cells, NAD+ and NMN, 11 point curve

Compound	IC50 (Activity (μM)) [µM]	IC50 (Activity) [µM]
COc1ccc(-c2cc(NC(=O)N3[C@@H]4C[C@@H](C)C[C@H]3C4)c(F)cc2Cl)cn1 [Example 131, cis-N-[4-chloro-2-fluoro-5-(6-methoxy-3-pyridinyl)phenyl]-3-methyl-6-azabicyclo[3.1.1]heptane-6-carboxamide]	0.7	0.0001 to 1
Cc1ccc(NC(=O)N2C3C[C@@H]2C[C@@](C)(C#N)C3)cc1-c1cncc(F)c1 (stereo in doubt) [Example 43, cis-3-cyano-N-(3-(5-fluoropyridin-3-yl)-4-methylphenyl)-3-methyl-6-azabicyclo[3.1.1]heptane-6-carboxamide]	0.5	0.0001 to 1
Cc1ccc(NC(=O)N2C3C[C@H]2C[C@@H](C(C)(C)O)C3)cc1-c1cncc(F)c1 [Example 9, cis-N-(3-(5-fluoropyridin-3-yl)-4-methylphenyl)-3-(2-hydroxypropan-2-yl)-6-azabicyclo[3.1.1]heptane-6-carboxamide]	4.2	1 to 10
Cc1cncc(-c2cc(NC(=O)N3C4CCCC3C4)ccc2C)c1 [Example 115, N-[4-methyl-3-(5-methylpyridin-3-yl)phenyl]-6-azabicyclo[3.1.1]heptane-6-carboxamide]	0.1	0.0001 to 1
COc1cncc(-c2cc(NC(=O)N3[C@@H]4C[C@@H](C)C[C@@]3(c3nnc(C)o3)C4)c(F)cc2C(F)(F)F)c1 (single isomer, unassigned) [Example 122, cis-N-(2-fluoro-5-(5-methoxypyridin-3-yl)-4-(trifluoromethyl)phenyl)-3-methyl-1-(5-methyl-1,3,4-oxadiazol-2-yl)-6-azabicyclo[3.1.1]heptane-6-carboxamide]	10.7	> 10
Cc1ccc(NC(=O)N2C3CCCC2C3)cc1-c1cnccc1C#N [Example 62, N-(3-(4-cyanopyridin-3-yl)-4-methylphenyl)-6-azabicyclo[3.1.1]heptane-6-carboxamide]	1.1	1 to 10
O=C(Nc1ccc(F)c(-c2cncc(F)c2)c1)N1C2CCCC1C2 [Example 74, N-(4-fluoro-3-(5-fluoropyridin-3-yl)phenyl)-6-azabicyclo[3.1.1]heptane-6-carboxamide]	2.8	1 to 10
COc1ccncc1-c1cc(NC(=O)N2C3CCCC2C3)ccc1C [Example 59, N-[3-(4-methoxypyridin-3-yl)-4-methylphenyl]-6-azabicyclo[3.1.1]heptane-6-carboxamide]	1.7	1 to 10
Cc1ccc(NC(=O)N2C3CCCC2C3)cc1-c1cncc(F)c1C [Example 92, N-(3-(5-fluoro-4-methylpyridin-3-yl)-4-methylphenyl)-6-azabicyclo[3.1.1]heptane-6-carboxamide]	0.5	0.0001 to 1
O=C(Nc1ccc(Cl)c(-c2cncc(F)c2)c1)N1C2C[C@H](OC(F)F)C[C@H]1C2 [Example 55, trans-N-(4-chloro-3-(5-fluoropyridin-3-yl)phenyl)-3-(difluoromethoxy)-6-azabicyclo[3.1.1]heptane-6-carboxamide]	0.3	0.0001 to 1
Cc1ccc(NC(=O)N2C3C[C@H](C#N)C[C@@H]2C3)cc1-c1cncc(F)c1 [Example 49, cis-3-cyano-N-(3-(5-fluoropyridin-3-yl)-4-methylphenyl)-6-azabicyclo[3.1.1]heptane-6-carboxamide]	0.4	0.0001 to 1
Cc1ccc(NC(=O)N2C3CCC2COC3)cc1-c1cncc(F)c1 [Example 94, N-[3-(5-fluoropyridin-3-yl)-4-methylphenyl]-3-oxa-8-azabicyclo[3.2.1]octane-8-carboxamide]	2.8	1 to 10
CCc1ccc(NC(=O)N2[C@@H]3C[C@H](C)C[C@H]2C3)cc1-c1cncc(F)c1 [Example 76, trans-N-(4-ethyl-3-(5-fluoropyridin-3-yl)phenyl)-3-methyl-6-azabicyclo[3.1.1]heptane-6-carboxamide]	0.03	0.0001 to 1
Cc1ncc(-c2cc(NC(=O)N3C4CCCC3C4)ccc2C)cn1 [Example 85, N-(4-methyl-3-(2-methylpyrimidin-5-yl)phenyl)-6-azabicyclo[3.1.1]heptane-6-carboxamide]	1.8	1 to 10
Cc1ccc(NC(=O)N2C3CCCC2C3)cc1-c1cccnc1C [Example 69, N-[4-methyl-3-(2-methylpyridin-3-yl)phenyl]-6-azabicyclo[3.1.1]heptane-6-carboxamide]	1.6	1 to 10
Cc1ccc(NC(=O)N2CC[C@@H](C)C[C@H]2C)cc1-c1cncc(F)c1 (racemic) [Example 119, cis-N-(3-(5-fluoropyridin-3-yl)-4-methylphenyl)-2,4-dimethylpiperidine-1-carboxamide]	1.1	1 to 10
COc1cncc(-c2cc(NC(=O)N3C4CCCC3C4)ccc2C)c1 [Example 71, N-(3-(5-methoxypyridin-3-yl)-4-methylphenyl)-6-azabicyclo[3.1.1]heptane-6-carboxamide]	0.08	0.0001 to 1
Cc1ccc(NC(=O)N2C[C@@H]3C[C@H]2C[C@@H]3C#N)cc1-c1cncc(F)c1 (relative stereo) [Example 24, trans-5-cyano-N-(3-(5-fluoropyridin-3-yl)-4-methylphenyl)-2-azabicyclo[2.2.1]heptane-2-carboxamide]	3.3	1 to 10
Cc1ccc(NC(=O)N2C3CCCC2C3)cc1-c1cncc(Cl)c1 [Example 117, N-[3-(5-chloro-3-pyridyl)-4-methyl-phenyl]-6-azabicyclo[3.1.1]heptane-6-carboxamide]	0.03	0.0001 to 1
CO[C@@H]1CC[C@H]2CC1N2C(=O)Nc1ccc(C)c(-c2cncc(F)c2)c1 [Example 7, trans-N-(3-(5-fluoropyridin-3-yl)-4-methylphenyl)-2-methoxy-6-azabicyclo[3.1.1]heptane-6-carboxamide]	2	1 to 10
Cc1ccc(NC(=O)N2C3CCCC2C3)cc1-c1ccnnc1 [Example 63]	25.9	> 10
C[C@@H]1CC2C[C@H](C1)N2C(=O)Nc1ccc(F)c(-c2cncc(F)c2)c1 (single isomer, unassigned) [Example 58, cis-N-(4-fluoro-3-(5-fluoropyridin-3-yl)phenyl)-3-methyl-6-azabicyclo[3.1.1]heptane-6-carboxamide]	0.3	0.0001 to 1
Cc1nnc(C23CCCC(C2)N3C(=O)Nc2ccc(C)c(-c3cncc(F)c3)c2)o1 (stereo not drawn) [Example 98, N-[3-(5-fluoro-3-pyridyl)-4-methyl-phenyl]-1-(5-methyl-1,3,4-oxadiazol-2-yl)-6-azabicyclo[3.1.1]heptane-6-carboxamide]	0.2	0.0001 to 1
CCc1ccc(NC(=O)N2[C@@H]3C[C@@H](C)C[C@H]2C3)cc1-c1cncc(F)c1 [Example 82, cis-N-(4-ethyl-3-(5-fluoropyridin-3-yl)phenyl)-3-methyl-6-azabicyclo[3.1.1]heptane-6-carboxamide]	0.02	0.0001 to 1
Cc1ccc(NC(=O)N2C3CCCC2C3)cc1-c1cncc(OC(F)F)c1 [Example 48, N-(3-(5-(difluoromethoxy)pyridin-3-yl)-4-methylphenyl)-6-azabicyclo[3.1.1]heptane-6-carboxamide]	0.1	0.0001 to 1
Cc1ccc(NC(=O)N2C[C@@H]3CC2C[C@H]3C#N)cc1-c1cncc(F)c1 [Example 16, cis-5-cyano-N-(3-(5-fluoropyridin-3-yl)-4-methylphenyl)-2-azabicyclo[2.2.1]heptane-2-carboxamide]	41	> 10
O=C(Nc1ccc(CCF)c(-c2cncc(F)c2)c1)N1C2CCCC1C2 [Example 28, N-(4-(2-fluoroethyl)-3-(5-fluoropyridin-3-yl)phenyl)-6-azabicyclo[3.1.1]heptane-6-carboxamide]	0.8	0.0001 to 1
Cc1ccc(NC(=O)C2CCCN2C(=O)OC(C)(C)C)cc1-c1cncc(F)c1 (racemic) [Example 105, tert-butyl 2-[[3-(5-fluoropyridin-3-yl)-4-methylphenyl]carbamoyl]pyrrolidine-1-carboxylate]	13.5	> 10
Cc1ccc(NC(=O)N2C3CCCC2C3)cc1-c1cncc(S(C)(=O)=O)c1 [Example 47, N-(4-methyl-3-(5-(methylsulfonyl)pyridin-3-yl)phenyl)-6-azabicyclo[3.1.1]heptane-6-carboxamide]	17	> 10
Cc1ccc(NC(=O)C2CCCN2C2CCC2)cc1-c1cncc(F)c1 (racemic) [Example 103, 1-cyclobutyl-N-[3-(5-fluoropyridin-3-yl)-4-methylphenyl]pyrrolidine-2-carboxamide]	17.7	> 10

Source: patent publication US20250361234A1 (NICO THERAPEUTICS, INC., priority 2022, published 2025)
